Results: ChEMBL document CHEMBL1137738, “Synthesis of a series of 8-(substituted-phenyl)xanthines and a study on the effects of substitution pattern of phenyl substituents on affinity for adenosine A(1) and A(2A) receptors” (Eur J Med Chem, 2009)

How the values were obtained:
Adenosine receptor A1 = biological target: T1, Adenosine receptor A1 (Homo sapiens, UniProt P30542); assay: biochemical
T1 sequence (P30542 whole entry): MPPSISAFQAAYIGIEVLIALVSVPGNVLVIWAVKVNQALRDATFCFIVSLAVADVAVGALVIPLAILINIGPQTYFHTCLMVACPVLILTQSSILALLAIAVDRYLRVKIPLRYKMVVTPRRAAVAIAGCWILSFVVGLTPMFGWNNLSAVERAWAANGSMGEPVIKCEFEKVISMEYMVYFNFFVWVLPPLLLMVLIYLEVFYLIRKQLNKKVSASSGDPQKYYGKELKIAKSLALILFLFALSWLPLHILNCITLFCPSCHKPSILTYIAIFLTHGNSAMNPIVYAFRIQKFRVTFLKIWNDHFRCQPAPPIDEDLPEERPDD
Description: Displacement of [3H]DPCPX from human cloned adenosine A1 receptor expressed in CHOK1 cells by scintillation counting

Adenosine receptor A2a = Adenosine receptor A2a (Homo sapiens, UniProt P29274); assay: biochemical
Adenosine receptor A2a, sequence (P29274 whole entry): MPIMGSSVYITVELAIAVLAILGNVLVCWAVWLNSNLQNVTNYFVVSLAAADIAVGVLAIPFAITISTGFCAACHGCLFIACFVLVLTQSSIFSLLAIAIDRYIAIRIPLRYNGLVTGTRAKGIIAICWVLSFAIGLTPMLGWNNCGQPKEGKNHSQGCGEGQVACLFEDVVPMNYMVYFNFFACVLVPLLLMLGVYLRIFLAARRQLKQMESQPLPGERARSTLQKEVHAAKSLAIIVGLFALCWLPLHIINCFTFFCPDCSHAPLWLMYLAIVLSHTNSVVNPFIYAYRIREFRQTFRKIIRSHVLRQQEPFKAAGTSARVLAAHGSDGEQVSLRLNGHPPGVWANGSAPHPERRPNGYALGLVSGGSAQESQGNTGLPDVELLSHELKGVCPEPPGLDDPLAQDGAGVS

[1] = Selectivity for adenosine A1 receptor over adenosine A2 receptor
Homo sapiens = species: Homo sapiens; assay: Selectivity ratio of Ki for human cloned adenosine A1 receptor to Ki for human cloned adenosine A2A receptor

Compound	Ki (Adenosine receptor A1) [nM]	Ki (Adenosine receptor A2a) [nM]	fold change (FC) [1]	Ratio Ki (Homo sapiens)
COc1ccc(-c2nc3c([nH]2)c(=O)n(C)c(=O)n3C)cc1OCCN1CCOCC1	> 100000	100	–	–
CCCn1c(=O)c2[nH]c(-c3ccc(OC)cc3O)nc2n(CCC)c1=O	–	–	90	–
Cn1c(=O)c2[nH]c(-c3cccc(OCCN4CCCC4)c3)nc2n(C)c1=O	1600	400	–	–
CCN(CC)CCOc1ccc(-c2nc3c([nH]2)c(=O)n(C)c(=O)n3C)cc1OC	> 100000	1100	–	100
COc1cc(-c2nc3c([nH]2)c(=O)n(C)c(=O)n3C)ccc1OCCN1CCOCC1	> 100000	100000	–	–
CN(C)CCOc1cccc(-c2nc3c([nH]2)c(=O)n(C)c(=O)n3C)c1	800	400	–	–
COc1cc(-c2nc3c([nH]2)c(=O)n(C)c(=O)n3C)ccc1OCCN1CCCC1	11200	1000	–	10
Cn1c(=O)c2[nH]c(-c3cccc(OCCN4CCCCC4)c3)nc2n(C)c1=O	2100	800	–	–
CCN(CC)CCOc1cc(-c2nc3c([nH]2)c(=O)n(C)c(=O)n3C)ccc1OC	43000	600	–	70
Cn1c(=O)c2[nH]c(-c3cccc(OCCN4CCOCC4)c3)nc2n(C)c1=O	2100	1400	–	–
COc1ccc(-c2nc3c([nH]2)c(=O)n(C)c(=O)n3C)cc1OCCN1CCCCC1	> 100000	2700	–	38
COc1cc(-c2nc3c([nH]2)c(=O)n(C)c(=O)n3C)ccc1OCCN1CCCCC1	> 100000	700	–	100
COc1ccc(-c2nc3c([nH]2)c(=O)n(C)c(=O)n3C)cc1OCCN(C)C	13500	400	–	30
COc1cc(-c2nc3c([nH]2)c(=O)n(C)c(=O)n3C)ccc1OCCN(C)C	> 100000	600	–	100
CCN(CC)CCOc1cccc(-c2nc3c([nH]2)c(=O)n(C)c(=O)n3C)c1	14000	100	–	140
